Results published in patent publication EP3046573B1, “AMYLIN ANALOGUES” (Zealand Pharma A/S, priority 2013, dated 2015).
pEC50: −log10 of the molar value. Numbered stars: 1 amine (or outer) side, 2 acyl side, 3 side chain; on linkers, the order of the positions; unused ones are H or OH. Bridge positions count the residues as written; N and C are the ends. Square brackets hold non-standard residues; d marks the D form. Peptide text beside a SMILES is read from it. * marks the point of attachment. C20 diacid = O=C(O)CCCCCCCCCCCCCCCCCCC(=O)*; γGlu = O=C(O)[C@H](CCC(=O)[*:2])N[*:1]; NMeY = CN[C@@H](Cc1ccc(O)cc1)C(=O)O; NMeI = CC[C@H](C)[C@H](NC)C(=O)O; Sar = CNCC(=O)O

Legend:
[1] = Assessment of physical stability: fibril formation detected with Thioflavin T (ThT), lag-time; type: physicochemical; conditions: 1 mg/ml peptide, 40 µM ThT, FND = Fibrillation not detected
Description: Solutions containing (i) 1 mg/ml of test peptide, 40 µM ThT and 50 mM phosphate (Ph) buffer (pH 7.0), (ii) 1 mg/ml of test peptide, 40 µM ThT and 50 mM histidine (His) buffer (pH 7.0), and (iii) 1 mg/ml of test peptide, 40 µM ThT and 50 mM acetate (Ac) buffer (pH 4.0), were loaded in a 96-well black fluorescence plate (clear bottom) in triplicate. Data were collected at fixed intervals of 10 min, each preceded by 300 s of automixing (agitation), over a period of 96 hours at 40° C. Physical stability, expressed as lag-time of fibril formation (in hours), was defined as the intersection between two linear regressions representing the initial stable phase and the growth phase.

[2] = Solubility assessment (turbidity absorbance at 325 nm); type: physicochemical; conditions: stock 2 mg/ml diluted 1:1, ambient temperature (typically 25°C), n=1
How it was run: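 Stock 2 mg/ml peptide, H2O/HCl pH 2.5; 1:1 into 100 mM buffers: acetate pH 4.0/5.0, His pH 6.0/7.0, phosphate pH 6.0/7.0/7.5. A280 + A325, ~25°C, n=1. Soluble ≥ 1 mg/ml if A325 ≤ 0.02.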

[3] = tested on: Sprague Dawley (SD) rats; assay: Acute food intake and body weight in normal Sprague Dawley rats; type: in vivo; conditions: vehicle-corrected, dose 30 nmol/kg sc, once
Description: Sprague Dawley (SD) rats were obtained from Taconic A/S, Denmark. The animals arrived at least 7 days before the study start to allow acclimatization to experimental conditions. From arrival and throughout the study, the rats were housed in groups of 2 (n = 2) in a light-, temperature- and humidity-controlled room (reversed 12/12 h light/dark cycle: lights turned off during day-time and on during night-time; temperature 20-22°C; relative humidity 50-80%). Animals had access ad libitum to food (Altromin™ 1324, Brogaarden A/S, Gentofte, Denmark) and water (domestic quality tap water with citric acid added to pH ∼ 3.6) during the entire study. Stratification of rats was based on body weight (BW) on a cage-by-cage basis; mean BWs per cage were used as the basis for pairing four cages together in a group (n = 8 per group). A vehicle group and positive control group were included in each set of tests. Rats were dosed subcutaneously (sc) once in the morning immediately before turning off the lights, using a body weight-corrected dose of peptide (30 nmol/kg). Dosing volume was 5 ml/kg. Food intake was recorded manually at t = 0 (pre-dose) and at t = 4, 7, 10, 24, 48, 72 and 96 hours after dosing. Body weight was measured daily.
Statistical analyses on body weight were performed using GraphPad™ Prism version 5. The measured parameters were compared using unpaired t tests. Differences were considered statistically significant at p < 0.05. Data are means ± SEM; n =8.

[4] = target: T1, human calcitonin receptor (hCTR2) (Homo sapiens, UniProt P30988); assay: hCTR2 assay: induction of cAMP (AlphaScreen cAMP Assay kit) in COS7 cells expressing hCTR2; type: cell-based
T1 construct: expressed in transfected cells
T1 sequence (P30988 25-474): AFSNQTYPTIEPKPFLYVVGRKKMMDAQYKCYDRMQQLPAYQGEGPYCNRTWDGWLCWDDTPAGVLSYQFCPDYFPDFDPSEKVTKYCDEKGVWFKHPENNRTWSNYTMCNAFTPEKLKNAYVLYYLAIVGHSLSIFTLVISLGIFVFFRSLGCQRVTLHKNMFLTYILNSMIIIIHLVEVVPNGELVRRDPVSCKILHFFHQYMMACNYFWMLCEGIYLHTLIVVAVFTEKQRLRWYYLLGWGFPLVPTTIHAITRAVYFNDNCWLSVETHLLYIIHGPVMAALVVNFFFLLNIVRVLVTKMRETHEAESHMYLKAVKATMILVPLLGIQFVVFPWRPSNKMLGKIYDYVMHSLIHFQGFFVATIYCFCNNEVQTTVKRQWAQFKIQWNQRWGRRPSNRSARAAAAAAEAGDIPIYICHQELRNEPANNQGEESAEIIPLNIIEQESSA
How it was run: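 COS7 stable hCTR2 clone (RAMP-free); peptide dose-response 15 min 37° C in Tyrode pH 7.4 + 100 µM IBMX + 0.1% casein; lysis 10 min RT; AlphaScreen cAMP; 4PL fit.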

Structure (SMILES): CC[C@H](C)[C@@H](C(=O)N[C@@H](CC(C)C)C(=O)N[C@@H](CO)C(=O)N[C@@H](CO)C(=O)N[C@H](C(=O)N[C@@H](CC(N)=O)C(=O)N[C@H](C(=O)NCC(=O)N[C@@H](CO)C(=O)N[C@@H](CC(N)=O)C(=O)N[C@H](C(=O)N(C)[C@@H](Cc1ccc(O)cc1)C(N)=O)[C@@H](C)O)C(C)C)[C@@H](C)O)N(C)C(=O)[C@H](C)NC(=O)CN(C)C(=O)[C@H](Cc1ccccc1)NC(=O)[C@H](CC(N)=O)NC(=O)[C@H](CC(N)=O)NC(=O)[C@H](CO)NC(=O)[C@H](CO)NC(=O)[C@H](Cc1c[nH]cn1)NC(=O)[C@H](Cc1c[nH]cn1)NC(=O)[C@H](CC(C)C)NC(=O)[C@H](Cc1ccccc1)NC(=O)[C@H](CCC(=O)O)NC(=O)[C@H](C)NC(=O)[C@H](CC(C)C)NC(=O)[C@H](CCCNC(=N)N)NC(=O)[C@H](CCC(N)=O)NC(=O)[C@@H](NC(=O)[C@H](C)NC(=O)[C@@H]1CSSC[C@H](NC(=O)[C@H](CCCNC(=N)N)NC(=O)CC[C@H](NC(=O)CCCCCCCCCCCCCCCCCCC(=O)O)C(=O)O)C(=O)N[C@@H](CC(N)=O)C(=O)N[C@@H]([C@@H](C)O)C(=O)N[C@@H](C)C(=O)N[C@@H]([C@@H](C)O)C(=O)N1)[C@@H](C)O [Compound 61, [19CD]-isoGlu-RC()NTATC()ATQRLAEFLHHSSNNF-Gly(Me)-A-Ile(Me)-LSSTNVGSNT-Tyr(Me)-NH2] ({C20 diacid-γGlu}-RCNTATCATQRLAEFLHHSSNNF[Sar]A[NMeI]LSSTNVGSNT[NMeY]-NH2; disulfide 2-7)
- Fibrillation lag time (hours) pH 4.0 (Ac) ([1]; 50 mM acetate buffer pH 4.0, 96 hours at 40°C): FND
- Fibrillation lag time (hours) pH 7.0 (His) ([1]; 50 mM histidine buffer pH 7.0, 96 hours at 40°C): 3 hours
- Fibrillation lag time (hours) pH 7.0 (Ph) ([1]; 50 mM phosphate buffer pH 7.0, 96 hours at 40°C): 3 hours
- Solubility, Acetate buffer pH 4 ([2]; 100 mM acetate buffer pH 4.0): SS (SS indicates solubility ≥ 1mg/ml)
- Solubility, Acetate buffer pH 5 ([2]; 100 mM acetate buffer pH 5.0): SS (SS indicates solubility ≥ 1mg/ml)
- Solubility, Histidine buffer pH 6 ([2]; 100 mM histidine buffer pH 6.0): II (II indicates solubility ≤ 1 mg/ml)
- Solubility, Histidine buffer pH 7 ([2]; 100 mM histidine buffer pH 7.0): II (II indicates solubility ≤ 1 mg/ml)
- Solubility, Phosphate buffer pH 6 ([2]; 100 mM phosphate buffer pH 6.0): II (II indicates solubility ≤ 1 mg/ml)
- Solubility, Phosphate buffer pH 7 ([2]; 100 mM phosphate buffer pH 7.0): II (II indicates solubility ≤ 1 mg/ml)
- Solubility, Phosphate buffer pH 7.5 ([2]; 100 mM phosphate buffer pH7.5): II (II indicates solubility ≤ 1 mg/ml)
- Food intake inhibition (%) after 48 hours ([3]; 48 hours): 24%
- Body weight loss (%) after 96 hours ([3]; mean ± SEM, 96 hours, n = 8): 1 ± 1.6 %
- pEC50 [4]: 9.52
